Measurements reported in patent US9920295B2, “Bioreactor for isolation of rare cells and methods of use” (The Trustees of the University of Pennsylvania, priority 2012, dated 2018).

What was measured:
CD41+ and CD41− cells = assay: Label-free MS quantitation of cytoskeletal proteome; assay type: cell-based, human
Procedure: BM CD34^+-derived cells at day 7 were stained with CD41-FITC at room temperature for 1 h, followed by with Annexin-V-PE (BD Biosciences) in the Annexin-V staining medium for 15 min. Cells were then resuspended in 2% FBS/PBS with 7-AAD. Viable HSC-containing cell populations and differentiated MK lineages at day 7 in culture were separated on the basis of CD41 surface expression by cell sorting performed on a FACS Vantage machine (Becton Dickinson). Dead cells stained with 7-AAD and Annexin-V were excluded from sorting. Sorted cells were directly processed for mass spectrometry (MS) analyses (FIG. 5).
Samples were prepared for mass spectrometry by gel-free (Wiśniewski et al., 2009, Nat Methods, 6:359-362) or in-gel digestion methods. […] Label-free relative peptide quantitation was performed on proportional peak fingerprints (ProPF) of proteins with in-house software coded in Mathematica (Wolfram Research). […] Proteomes from primary MKs were analyzed using this unique method and a selected group of proteins were validated by antibodies (FIG. 13D). COS cells transfected with GFP-NMM-IIA and siRNA […] knockdown were also analyzed by the method, and show increased NMM-IIA expression by 17-fold and partial knockdown (˜40%) of NMM-IIA compared with cells transfected with GFP and scrambled siRNA. There was minimal perturbation to other proteins detected.

[1] = tested on: CD34+-derived cells (HSC, MPP, CPP); assay: HSC/P subpopulation analysis by flow cytometry; assay type: cell-based, human
Procedure: Freshly purified bone marrow-derived human CD34^+ cells were obtained from either the Penn Xenograft Core Facility or AllCells (Emeryville, Calif.). Cells from at least 20 different donors were used in this study. Purity of the samples (>98%) was confirmed by flow cytometry with monoclonal antibody against human CD34. All experiments were performed in HSC expansion media (StemLine, Sigma) supplemented with 1× antibiotics, 20% BIT 9500 Serum Substitute (StemCell Technologies), 2 mM […] (Gibco) and the following human recombinant cytokines: SCF (100 ng/ml) and Tpo (100 ng/ml). In some occasions, the media was also supplemented by G-CSF (100 ng/ml), epidermal growth factor (EGF, 100 ng/ml), transforming growth factor beta 1 (TGF-beta1, 100 ng/ml), erythropoietin (EPO, 1 U/ml) and interleukin-3 (IL-3, 10 ng/ml). All cytokines were purchased from R&D Systems. After cells were cultured for 4 days, they were treated with different doses of cellular contractility inhibitors, including (±)-Blebbistatin (Bleb) (EMD Biosciences) and/or CH-223191 (Sigma) for indicated durations of up to 3 days. Cells were cultured at 37° C. in 5% CO2.
Surface marker analysis for HSC/Ps was done on either a LSR II flow cytometer or FACSCalibur (Becton Dickinson). […] Cells isolated from the bone marrow stained for 1 hr with APC anti-mouse CD47 (miap301, AbD Serotec), FITC anti-human CD47 (BD Biosciences), and PE anti-human CD11b, PE anti-human CD19 (both from BD Biosciences), or PE anti-human Glycophorin A (Invitrogen). Plts and RBCs were analyzed by staining with PE anti-mouse CD41 (eBioscience) and FITC anti-human CD41 (eBioscience) for 20 min, followed by analysis on FACSCalibur on log forward and side scatter scales.

[2] = tested on: SCID-repopulating cells in NSG mice; assay: Engraftment in NSG mice and limiting dilution analysis; conditions: mouse, in vivo
Procedure: BM-derived CD34^+ cells were cultured in SCF and Tpo (100 ng/ml each) for 4 days and treated under control conditions or Bleb (20 μM) for 3 days. The cells were injected intra-tibially into sub-lethally irradiated (250 rads) 6-10-week-old NSG mice within 24 hr after irradiation. Engraftment was assessed by analysis of blood or bone marrow using anti-mouse and anti-human CD47 antibodies using flow cytometry. The mice were sacrificed after sixteen weeks post-transplantation. For secondary engraftment, 50% of the bone marrow from femurs and tibias from each mouse was transplanted into one sub-lethally irradiated NSG mouse. 16 weeks after transplantation, blood and bone marrow were harvested from the mice and analyzed by flow cytometry. All animal experiments were done in accordance with institutional guidelines approved by the ethical committee from the University of Pennsylvania. The human repopulation HSC frequency was quantified by extreme limiting dilution analysis (ELDA) software (Hu and Smyth, 2009)

Cc1ccc2c(c1)C(=O)C1(O)CCN(c3ccccc3)C1=N2 (racemic) [blebbistatin, (±)-blebbistatin]
detected proteins up-regulated (CD41+ and CD41− cells; CD41+ cells, treated samples): 75% | indicated proteins with increased expression (CD41+ and CD41− cells; CD41− cells, 3 d treatment): 20% | change in primitive HSC cell number [1]: < 50% | enrichment for LT-HSCs ([1]; 20 μM, 2N cells): 15.6±4.1 fold | IC50 ([1]; 2N cells, n≥4 donors, read-out: CPP and MPP number IC50): ~10.5 µM | CPP depletion ([1]; 3-day treatment): 31 fold | CPP depletion, range ([1]; 3-day treatment): 15-48 fold | HSC enrichment, average ([1]; 3-day treatment): 16 fold | HSC enrichment, range ([1]; 3-day treatment): 5-24 fold | MPP depletion ([1]; 3-day treatment): 1.8 fold | MPP depletion, range ([1]; 3-day treatment): 1.3-2.3 fold | HSC number, mean ([1]; normalized to initial cell input): 646±77 | HSC-to-MPP ratio vs untreated cells ([1]; on plastic): ~4 fold | Ki ([1]; read-out: inhibition constant Ki, MPPs and CPPs): ~10.5 µM | increase in HSC frequency in terms of total cell number injected [2]: 4 fold
